Measured values reported in article PMC7224190, “Pharmacological inhibition of PRMT7 links arginine monomethylation to the cellular stress response” (Nature Communications, 2020).

Tests used:
[1] = molecular target: T1, PRMT7 (Homo sapiens, UniProt Q9NVM4); assay: radiometric SPA methyltransferase assay, 3H-SAM and H2B ([…]); type: biochemical
T1 sequence (Q9NVM4 1-692): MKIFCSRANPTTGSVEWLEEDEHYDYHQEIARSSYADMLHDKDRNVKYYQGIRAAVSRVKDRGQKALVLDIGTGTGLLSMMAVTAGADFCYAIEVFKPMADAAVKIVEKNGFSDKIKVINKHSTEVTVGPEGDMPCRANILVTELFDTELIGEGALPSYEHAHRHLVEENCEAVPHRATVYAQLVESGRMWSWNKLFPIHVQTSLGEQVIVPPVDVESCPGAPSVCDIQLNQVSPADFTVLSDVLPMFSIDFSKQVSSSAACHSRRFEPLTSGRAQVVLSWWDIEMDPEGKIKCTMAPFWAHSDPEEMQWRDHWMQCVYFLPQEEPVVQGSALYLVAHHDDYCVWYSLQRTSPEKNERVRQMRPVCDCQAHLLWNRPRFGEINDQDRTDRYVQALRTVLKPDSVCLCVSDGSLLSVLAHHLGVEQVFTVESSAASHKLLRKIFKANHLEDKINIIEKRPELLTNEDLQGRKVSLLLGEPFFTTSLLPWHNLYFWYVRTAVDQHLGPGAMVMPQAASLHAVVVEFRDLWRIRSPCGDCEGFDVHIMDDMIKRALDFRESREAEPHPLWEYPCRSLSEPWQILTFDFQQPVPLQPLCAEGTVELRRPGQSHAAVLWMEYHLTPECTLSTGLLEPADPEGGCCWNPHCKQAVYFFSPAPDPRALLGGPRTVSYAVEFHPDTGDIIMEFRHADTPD

[2] = molecular target: PRC2-EZH2 (Homo sapiens, UniProt Q15910); assay: biochemical; parameters: radiometric methyltransferase selectivity assay with tritiated SAM, per cent activity; settings: read-out: % of control remaining
[3] = molecular target: T2, BCDIN3D (Homo sapiens, UniProt Q7Z5W3); assay: biochemical; parameters: radiometric methyltransferase assay with tritiated SAM, IC50
T2 sequence (Q7Z5W3 1-292): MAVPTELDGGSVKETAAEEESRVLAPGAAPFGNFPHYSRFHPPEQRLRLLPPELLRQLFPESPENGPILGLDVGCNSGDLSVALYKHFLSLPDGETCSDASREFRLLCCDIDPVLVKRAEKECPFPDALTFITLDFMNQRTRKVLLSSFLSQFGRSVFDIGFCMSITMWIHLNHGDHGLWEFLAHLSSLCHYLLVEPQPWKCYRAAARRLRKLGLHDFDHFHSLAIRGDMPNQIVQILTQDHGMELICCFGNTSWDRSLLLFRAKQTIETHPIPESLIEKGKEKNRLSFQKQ

[4] = molecular target: PRMT6 (Homo sapiens, UniProt Q96LA8); assay: biochemical; parameters: radiometric methyltransferase assay with tritiated SAM, IC50
[5] = molecular target: T3, PRMT9 (Homo sapiens, UniProt Q6P2P2); assay: biochemical; parameters: radiometric methyltransferase assay with tritiated SAM, IC50
T3 sequence (Q6P2P2 1-845): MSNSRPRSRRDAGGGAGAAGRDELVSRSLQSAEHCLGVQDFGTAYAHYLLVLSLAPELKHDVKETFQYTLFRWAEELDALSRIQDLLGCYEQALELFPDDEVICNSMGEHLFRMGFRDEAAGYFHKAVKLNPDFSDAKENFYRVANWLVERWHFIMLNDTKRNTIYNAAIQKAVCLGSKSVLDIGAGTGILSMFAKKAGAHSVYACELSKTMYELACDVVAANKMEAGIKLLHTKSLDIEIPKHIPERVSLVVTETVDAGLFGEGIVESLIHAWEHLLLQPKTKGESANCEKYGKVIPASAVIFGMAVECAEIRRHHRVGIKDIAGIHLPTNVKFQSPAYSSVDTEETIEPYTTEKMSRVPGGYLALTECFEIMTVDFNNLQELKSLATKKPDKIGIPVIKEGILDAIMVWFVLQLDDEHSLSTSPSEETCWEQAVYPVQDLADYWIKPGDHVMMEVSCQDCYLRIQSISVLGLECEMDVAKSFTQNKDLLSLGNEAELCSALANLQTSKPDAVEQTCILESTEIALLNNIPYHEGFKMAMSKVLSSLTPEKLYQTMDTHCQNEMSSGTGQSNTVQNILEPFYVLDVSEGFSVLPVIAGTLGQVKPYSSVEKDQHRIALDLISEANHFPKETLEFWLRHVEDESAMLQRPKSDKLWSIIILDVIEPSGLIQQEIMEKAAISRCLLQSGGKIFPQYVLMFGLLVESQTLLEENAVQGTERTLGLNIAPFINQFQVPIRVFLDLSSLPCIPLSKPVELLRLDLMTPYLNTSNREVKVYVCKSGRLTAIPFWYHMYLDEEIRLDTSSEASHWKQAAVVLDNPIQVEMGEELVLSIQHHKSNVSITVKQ

[6] = molecular target: T1, PRMT7; assay: biochemical; parameters: full-length; radiometric methyltransferase selectivity assay with tritiated SAM, per cent activity; settings: read-out: % of control remaining
Protocol: The methyltransferase selectivity was assessed at two compound concentrations of 1 and 10 μM by radiometric assays using tritiated-SAM. For methyltransferases: MLL1, MLL3, EZH1 (PRC2), and EZH2 (PRC2), G9a, GLP, SUV39H1, SUV39H2, SUV420H1, SUV420H2, SETD2, SETD8, SETDB1, SETD7, PRMT1, PRMT3, PRMT4, PRMT5/ MEP50 complex, PRMT6, PRMT7, PRMT8, PRMT9, PRDM9, SMYD2, SMYD3, DNMT1, and BCDIN3D the incorporation of a tritium-labeled methyl group into biotinylated substrate was monitored using scintillation proximity assay (SPA). Briefly, a 10 μL reaction containing ^3H-SAM and substrate at concentrations close to the apparent Km values for each enzyme (balanced conditions) was prepared. The reactions were quenched with 10 μL of 7.5 M guanidine hydrochloride; 180 μL of 20 mM Tris buffer (pH 8.0) were added, and the mixture was transferred to a 96-well FlashPlate and incubated for 1 h. The counts per minute (CPM) was measured on a TopCount plate reader. The CPM in the absence of compound or enzyme was defined as 100% activity and background (0%), respectively, for each dataset[74]–[76]. Selectivity of SGC8158 against 342 kinases was evaluated in a kinase panel TR-FRET assay at 1 and 0.1 μM compound in duplicates as described before. Briefly, tagged kinases were incubated with compound and staurosporine-based fluorescent probe where the binding was detected using Tb conjugated anti-tag antibody energy transfer to the probe. Excitation wavelength was 337 nm and fluorescent emission signal was measured for Tb (486 nm) and fluorescent probe (BODIPY, 515 nm). Specific and non-specific binding was determined in the absence and presence of unlabeled staurosporine.

Sequence of PRC2-EZH2 (Q15910 whole entry): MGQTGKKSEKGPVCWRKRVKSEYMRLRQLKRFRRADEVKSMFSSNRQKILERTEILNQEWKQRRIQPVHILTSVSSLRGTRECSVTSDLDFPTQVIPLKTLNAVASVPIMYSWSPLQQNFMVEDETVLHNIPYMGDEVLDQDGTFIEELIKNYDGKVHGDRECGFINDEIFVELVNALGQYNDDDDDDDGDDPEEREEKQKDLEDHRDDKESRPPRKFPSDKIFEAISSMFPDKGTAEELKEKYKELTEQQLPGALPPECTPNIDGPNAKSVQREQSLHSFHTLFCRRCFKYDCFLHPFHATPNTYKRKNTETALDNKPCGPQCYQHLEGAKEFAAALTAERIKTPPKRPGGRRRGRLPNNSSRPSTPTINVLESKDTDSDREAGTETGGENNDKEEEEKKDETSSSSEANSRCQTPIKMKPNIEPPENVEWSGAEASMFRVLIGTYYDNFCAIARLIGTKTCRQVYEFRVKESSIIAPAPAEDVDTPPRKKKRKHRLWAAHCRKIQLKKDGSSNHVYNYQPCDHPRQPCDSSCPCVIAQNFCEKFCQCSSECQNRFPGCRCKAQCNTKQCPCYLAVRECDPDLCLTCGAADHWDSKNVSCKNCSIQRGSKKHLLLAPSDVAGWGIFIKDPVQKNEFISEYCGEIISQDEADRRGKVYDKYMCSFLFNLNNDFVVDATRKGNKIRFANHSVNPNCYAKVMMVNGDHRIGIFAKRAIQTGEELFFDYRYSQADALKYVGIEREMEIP
Sequence of PRC2-EZH2 (O75530 whole entry partner): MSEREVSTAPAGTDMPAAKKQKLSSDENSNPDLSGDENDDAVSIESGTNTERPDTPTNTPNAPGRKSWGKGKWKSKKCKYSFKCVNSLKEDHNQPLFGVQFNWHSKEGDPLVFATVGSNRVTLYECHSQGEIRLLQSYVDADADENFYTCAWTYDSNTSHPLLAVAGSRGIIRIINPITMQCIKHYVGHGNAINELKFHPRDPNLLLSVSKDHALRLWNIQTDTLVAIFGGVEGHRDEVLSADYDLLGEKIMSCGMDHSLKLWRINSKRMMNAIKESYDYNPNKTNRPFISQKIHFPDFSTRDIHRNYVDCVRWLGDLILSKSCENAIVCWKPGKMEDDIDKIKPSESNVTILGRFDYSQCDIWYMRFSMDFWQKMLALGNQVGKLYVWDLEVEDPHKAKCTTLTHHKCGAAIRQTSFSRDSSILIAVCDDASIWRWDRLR
Sequence of PRC2-EZH2 (Q15022 whole entry partner): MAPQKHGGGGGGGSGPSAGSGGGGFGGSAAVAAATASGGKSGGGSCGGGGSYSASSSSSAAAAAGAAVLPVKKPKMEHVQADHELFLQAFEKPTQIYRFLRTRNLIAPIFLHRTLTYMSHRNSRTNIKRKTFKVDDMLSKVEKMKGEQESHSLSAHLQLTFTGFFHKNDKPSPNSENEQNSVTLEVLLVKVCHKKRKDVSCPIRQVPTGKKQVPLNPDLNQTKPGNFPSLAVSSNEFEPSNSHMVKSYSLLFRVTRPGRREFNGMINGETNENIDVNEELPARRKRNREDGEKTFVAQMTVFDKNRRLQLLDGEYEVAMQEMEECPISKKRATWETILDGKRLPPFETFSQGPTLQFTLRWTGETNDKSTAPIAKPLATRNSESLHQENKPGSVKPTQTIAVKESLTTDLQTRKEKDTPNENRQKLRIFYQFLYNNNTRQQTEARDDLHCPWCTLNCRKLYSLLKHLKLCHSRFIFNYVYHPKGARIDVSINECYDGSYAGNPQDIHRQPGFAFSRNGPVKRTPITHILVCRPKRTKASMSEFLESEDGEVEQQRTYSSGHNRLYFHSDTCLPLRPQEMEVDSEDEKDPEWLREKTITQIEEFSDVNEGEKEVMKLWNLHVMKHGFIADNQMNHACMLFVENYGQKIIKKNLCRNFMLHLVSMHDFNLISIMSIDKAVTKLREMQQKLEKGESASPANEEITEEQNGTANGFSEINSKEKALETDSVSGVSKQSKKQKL
Sequence of PRMT6 (Q96LA8 whole entry): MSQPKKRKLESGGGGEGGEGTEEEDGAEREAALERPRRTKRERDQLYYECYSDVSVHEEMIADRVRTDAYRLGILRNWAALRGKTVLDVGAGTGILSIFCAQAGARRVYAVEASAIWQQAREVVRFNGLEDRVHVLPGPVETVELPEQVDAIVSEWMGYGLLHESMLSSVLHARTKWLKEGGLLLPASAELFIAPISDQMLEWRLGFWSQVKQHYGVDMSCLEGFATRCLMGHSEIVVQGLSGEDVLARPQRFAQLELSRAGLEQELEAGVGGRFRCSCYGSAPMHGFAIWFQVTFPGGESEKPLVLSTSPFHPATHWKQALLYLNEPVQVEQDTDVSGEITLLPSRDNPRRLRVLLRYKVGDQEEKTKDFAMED

| SMILES | IC50 [1] [µM] | remaining activity at 1 µM [2] [%] | remaining activity at 10 µM [2] [%] | IC50 [3] [µM] | IC50 [4] [µM] | IC50 [5] [µM] | remaining activity at 1 µM [6] [%] | remaining activity at 10 µM [6] [%] |
| --- | --- | --- | --- | --- | --- | --- | --- | --- |
| Nc1ncnc2c1ncn2[C@@H]1O[C@H](CSCCCNCc2cccc(-c3ccc(Cl)cc3)c2)[C@@H](O)[C@H]1O [SGC8172] | < 0.0025 | – | – | – | – | – | – | – |
| Nc1ncnc2c1ncn2[C@@H]1O[C@H](CSCCCCNCc2cccc(-c3ccc(Cl)cc3)c2)[C@@H](O)[C@H]1O [SGC8158] | – | 105 | 94 | 1.1 | 15 | 0.16 | 2 | 0 |
| CC1(C)O[C@@H]2[C@H](O1)[C@@H](CSCCCCNCc1cccc(-c3ccc(Cl)cc3)c1)O[C@H]2n1cnc2c(N)ncnc21 [SGC8158N] | – | 93 | 88 | – | – | – | 95 | 75 |
